Results on 14 molecules are retold here after patent US20260092061A1, “COMPOUNDS FOR TARGETED PROTEIN DEGRADATION” (Amphista Therapeutics Limited, priority 2022, published 2026).

A word on the DC50: it is the concentration giving 50% degradation. Broadly, the Dmax is the greatest extent of degradation seen.

The assay concerns the target T1, BRD9 (Homo sapiens, UniProt Q9H8M2).
T1 sequence (Q9H8M2 1-597): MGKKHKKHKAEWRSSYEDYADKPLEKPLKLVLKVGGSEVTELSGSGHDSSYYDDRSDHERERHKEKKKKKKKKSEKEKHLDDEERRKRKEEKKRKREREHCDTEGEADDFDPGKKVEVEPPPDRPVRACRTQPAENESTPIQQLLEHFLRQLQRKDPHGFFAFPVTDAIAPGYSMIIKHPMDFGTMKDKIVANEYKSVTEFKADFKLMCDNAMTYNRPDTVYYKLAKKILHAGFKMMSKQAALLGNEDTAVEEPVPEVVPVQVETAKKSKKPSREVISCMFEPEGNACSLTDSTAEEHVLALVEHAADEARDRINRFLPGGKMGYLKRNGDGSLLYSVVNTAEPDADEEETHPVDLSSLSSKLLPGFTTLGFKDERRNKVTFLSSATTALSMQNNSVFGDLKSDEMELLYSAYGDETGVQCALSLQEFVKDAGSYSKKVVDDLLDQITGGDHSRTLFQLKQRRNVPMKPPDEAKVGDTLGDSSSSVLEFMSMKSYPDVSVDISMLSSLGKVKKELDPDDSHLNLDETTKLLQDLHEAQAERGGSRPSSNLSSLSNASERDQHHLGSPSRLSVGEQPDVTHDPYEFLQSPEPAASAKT
The assay can be described thus: Degradation of BRD9 (IF), immunofluorescence in MV4-11 cells, 24 hours (Assay Protocol 2). In kind it is cell-based. On the set-up: A suspension of MV4-11 cells (ATCC CRL-9591) was prepared; host or cells: MV4-11. To be noted: BRD9 degradation; for DC50: Assay protocol 2, read-out: DC50; for Dmax: MV4-11, Assay protocol 2, read-out: Dmax. A digest of the protocol:
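% BRD9 remaining, scaled between DMSO (high) and 100 nM CFT-8634 (low) control wells, derives from mean Alexa 647 contrast in central nuclei by high-content imaging. MV4-11 cells had 24 h compound exposure at 37° C. before PFA fixation, Triton permeabilisation and anti-BRD9 E4Q3F immunostaining.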

Regarding `COc1cc(-c2cn(C)c(=O)c(C)c2C)ccc1OC1CCC(Cc2cccc3c2CCN(C(=O)/C(C#N)=C/C(C)(C)N2CCN(C)CC2)C3C(C)C)CC1` (stereo not shown) [Compound C85], the DC50 was in the range of 25 to 1000 nM and the Dmax was greater than 75%.

In the case of `COc1cc(-c2cn(C)c(=O)c(C)c2C)cc(OC)c1CN1CCN(Cc2ccc3c(c2)[C@H](C(C)C)N(C(=O)/C(C#N)=C/C(C)(C)C)CC3)C2(CC2)C1` (single isomer, unassigned) [Compound C87, (E/Z)-2-(7-((7-(2,6-dimethoxy-4-(1,4,5-trimethyl-6-oxo-1,6-dihydropyridin-3-yl)benzyl)-4,7-diazaspiro[2.5]octan-4-yl)methyl)-1-isopropyl-1,2,3,4-tetrahydroisoquinoline-2-carbonyl)-4,4-dimethylpent-2-enenitrile], the DC50 lay within 10 to 25 nM and the Dmax was in the range of 70 to 75%.

As for `COc1cc(-c2cn(C)c(=O)c(C)c2C)cc(OC)c1CN1CCN(Cc2cccc3c2CCN(C(=O)/C(C#N)=C/C2(C)CCOCC2)[C@H]3C)C2(CC2)C1` (single isomer, unassigned) [Compound B194, (E/Z)-2-(5-((7-(2,6-dimethoxy-4-(1,4,5-trimethyl-6-oxo-1,6-dihydropyridin-3-yl)benzyl)-4,7-diazaspiro[2.5]octan-4-yl)methyl)-1-methyl-1,2,3,4-tetrahydroisoquinoline-2-carbonyl)-3-(4-methyltetrahydro-2H-pyran-4-yl)acrylonitrile], the DC50 lay in the range of 1.25 to 10 nM and the Dmax lay in the range of 40 to 70%.

In the case of `COc1cc(-c2cn(C)c(=O)c(C)c2C)ccc1OC1CCC(Cc2cccc3c2CCN(C(=O)/C(C#N)=C/C(C)(C)N2CCN(C)CC2)C3C)CC1` (stereo not shown) [Compound C50], the 50% degradation concentration (DC50) lay within 25 to 1000 nM and the Dmax lay in the range of 70 to 75%.

Regarding `COc1cc(-c2cn(C)c(=O)c3[nH]ncc23)cc(OC)c1CN1CCN(Cc2cccc3c2CCN(C(=O)/C(C#N)=C/C(C)(C)C)C3C)CC12CC2` (mixture of isomers) [Compound B158, (E/Z)-2-(5-((4-(2,6-dimethoxy-4-(6-methyl-7-oxo-6,7-dihydro-1H-pyrazolo[3,4-c]pyridin-4-yl)benzyl)-4,7-diazaspiro[2.5]octan-7-yl)methyl)-1-methyl-1,2,3,4-tetrahydroisoquinoline-2-carbonyl)-4,4-dimethylpent-2-enenitrile], the DC50 is less than 1.25 nM and the Dmax is greater than 75%.

Regarding `COc1cc(-c2cn(C)c(=O)c(C)c2C)cc(OC)c1CN1CCN(Cc2cccc3c2CCN(C(=O)/C(C#N)=C/C2(C)CCOCC2)C3C(C)C)C2(CC2)C1` (mixture of isomers) [Compound C23, (E/Z)-2-(5-((7-(2,6-dimethoxy-4-(1,4,5-trimethyl-6-oxo-1,6-dihydropyridin-3-yl)benzyl)-4,7-diazaspiro[2.5]octan-4-yl)methyl)-1-isopropyl-1,2,3,4-tetrahydroisoquinoline-2-carbonyl)-3-(4-methyltetrahydro-2H-pyran-4-yl)acrylonitrile], the DC50 was less than 1.25 nM and the greatest degradation seen (Dmax) was greater than 75%.

On to `COc1cc(-c2cn(C)c(=O)c(C)c2C)cc(OC)c1CN1CCN(Cc2cccc3c2CCN(C(=O)/C(C#N)=C/C(C)(C)CF)[C@@H]3C)C2(CC2)C1` (single isomer, unassigned) [Compound B196, (E/Z)-2-(5-((7-(2,6-dimethoxy-4-(1,4,5-trimethyl-6-oxo-1,6-dihydropyridin-3-yl)benzyl)-4,7-diazaspiro[2.5]octan-4-yl)methyl)-1-methyl-1,2,3,4-tetrahydroisoquinoline-2-carbonyl)-5-fluoro-4,4-dimethylpent-2-enenitrile], for which the 50% degradation concentration (DC50) was in the range of 1.25 to 10 nM and the Dmax fell in the range of 70 to 75%.

As for `COc1cc(-c2cn(C)c(=O)c(C)c2C)cc(OC)c1CN1CC[C@H](Oc2cccc(C3CCCN3C(=O)/C(C#N)=C/C(C)(C)C)c2)C1` (mixture of isomers) [Compound B67, (E/Z)-2-(2-(3-(((S)-1-(2,6-dimethoxy-4-(1,4,5-trimethyl-6-oxo-1,6-dihydropyridin-3-yl)benzyl)417yrrolidine-3-yl)oxy)phenyl)pyrrolidine-1-carbonyl)-4,4-dimethylpent-2-enenitrile], the DC50 lay in the range of 1.25 to 10 nM and the maximal degradation (Dmax) is greater than 75%.

For the molecule `COc1cc(-c2cn(C)c(=O)c(C)c2C)cc(OC)c1CN1CCN(Cc2cccc3c2CCN(C(=O)/C(C#N)=C/C(C)(C)F)[C@@H]3C)C2(CC2)C1` (single isomer, unassigned) [Compound C20, (E/Z)-2-(5-((7-(2,6-dimethoxy-4-(1,4,5-trimethyl-6-oxo-1,6-dihydropyridin-3-yl)benzyl)-4,7-diazaspiro[2.5]octan-4-yl)methyl)-1-methyl-1,2,3,4-tetrahydroisoquinoline-2-carbonyl)-4-fluoro-4-methylpent-2-enenitrile], the DC50 is less than 1.25 nM and the maximal degradation (Dmax) is greater than 75%.

`COc1ccc(/C=C(\C#N)C(=O)N2CCc3c(CN4CCN(Cc5c(OC)cc(-c6cn(C)c(=O)c(C)c6C)cc5OC)CC4)cccc3C2C)cn1` (mixture of isomers) [Compound B71, (E/Z)-2-(5-((4-(2,6-dimethoxy-4-(1,4,5-trimethyl-6-ox0-1,6-dihydropyridin-3-yl)benzyl)piperazin-1-yl)methyl)-1-methyl-1,2,3,4-tetrahydroisoquinoline-2-carbonyl)-3-(6-methoxypyridin-3-yl)acrylonitrile]: the DC50 was in the range of 1.25 to 10 nM and the Dmax is 40 to 70%.

`COc1cc(-c2cn(C)c(=O)c(C)c2C)cc(OC)c1CN1CCC2(CCN(c3ccc4c(c3)[C@H](C)N(C(=O)/C(C#N)=C/C(C)(C)C)CC4)CC2)C1` [Compound C54]: the DC50 was 25 to 1000 nM and the maximal degradation (Dmax) fell in the range of 40 to 70%.

As for `COc1cc(-c2cn(C)c(=O)c(C)c2C)cc(OC)c1CN1CCN(Cc2ccc3c(c2)[C@H](C)N(C(=O)/C(C#N)=C/C(C)(C)CF)CC3)CC12CC2` (single isomer, unassigned) [Compound C33], the half-maximal degradation concentration (DC50) fell in the range of 1.25 to 10 nM and the Dmax was greater than 75%.

Take `COc1cc(-c2cn(C)c(=O)c(C)c2C)cc(OC)c1CN1CCN(Cc2cccc3c2CCN(C(=O)C(C#N)=CC24CC(OC)(C2)C4)C3C)C2(CC2)C1` (mixture of isomers) [Compound B191, (E/Z)-2-(5-((7-(2,6-dimethoxy-4-(1,4,5-trimethyl-6-oxo-1,6-dihydropyridin-3-yl)benzyl)-4,7-diazaspiro[2.5]octan-4-yl)methyl)-1-methyl-1,2,3,4-tetrahydroisoquinoline-2-carbonyl)-3-(3-methoxybicyclo[1.1.1]pentan-1-yl)acrylonitrile]: the DC50 is less than 1.25 nM and the Dmax is greater than 75%.

In the case of `COc1cc(-c2cn(C)c(=O)c(C)c2C)cc(OC)c1CN1CCN(Cc2cccc3c2CCN(C(=O)/C(C#N)=C/C(C)(C)C)C3C)C(=O)C1` (mixture of isomers) [Compound B155, (E/Z)-2-(5-((4-(2,6-dimethoxy-4-(1,4,5-trimethyl-8-oxo-1,6-dihydropyridin-3-yl)benzyl)-2-oxopiperazin-1-yl)methyl)-1-methyl-1,2,3,4-tetrahydroisoquinoline-2-carbonyl)-4,4-dimethylpent-2-enenitrile], the DC50 lay within 25 to 1000 nM and the Dmax was in the range of 40 to 70%.
